Source: US6737383B1, “Herbicidal oxadiazolidines” (priority 1999, dated 2004)

Columns and labels:
cocklebur = assay: Test B pre/postemergence cocklebur; assay type: in vivo, Xanthium strumarium
Procedure, shortened: (§1)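 Response is a visual 0-to-10 score relative to untreated plants, where 0 means no effect and 10 means complete control, taken twelve to sixteen days after application. Treatments went onto soil at planting and onto foliage of 1- to 4-leaf plants, using a surfactant-containing non-phytotoxic solvent.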

bedstraw = assay: Test B pre/postemergence bedstraw; assay type: in vivo, Galium aparine
Procedure, shortened: as §1

wheat = assay: Test B pre/postemergence wheat; assay type: in vivo, Triticum aestivum
Procedure, shortened: as §1

surinam grass = assay: Test B pre/postemergence surinam grass; assay type: in vivo, Brachiaria decumbens
Procedure, shortened: as §1

rape = assay: Test B pre/postemergence rape; assay type: in vivo, Brassica napus
Procedure, shortened: as §1

purple nutsedge = assay: Test B pre/postemergence purple nutsedge; assay type: in vivo, Cyperus rotundus
Procedure, shortened: as §1

sugar beet = assay: Test B pre/postemergence sugar beet; assay type: in vivo, Beta vulgaris
Procedure, shortened: as §1

pigweed = assay: Test B pre/postemergence pigweed; assay type: in vivo, Amaranthus retroflexus
Procedure, shortened: as §1

wild oat = assay: Test B pre/postemergence wild oat; assay type: in vivo, Avena fatua
Procedure, shortened: as §1

morningglory = assay: Test B pre/postemergence morningglory; assay type: in vivo, Ipomoea hederacea
Procedure, shortened: as §1

giant foxtail = assay: Test B pre/postemergence giant foxtail; assay type: in vivo, Setaria faberii
Procedure, shortened: as §1

velvetleaf = assay: Test B pre/postemergence velvetleaf; assay type: in vivo, Abutilon theophrasti
Procedure, shortened: as §1

corn = assay: Test B pre/postemergence corn; assay type: in vivo, Zea mays
Procedure, shortened: as §1

crabgrass = assay: Test B pre/postemergence crabgrass; assay type: in vivo, Digitaria sanguinalis
Procedure, shortened: as §1

soybean = assay: Test B pre/postemergence soybean; assay type: in vivo, Glycine max
Procedure, shortened: as §1

blackgrass = assay: Test B pre/postemergence blackgrass; assay type: in vivo, Alopecurus myosuroides
Procedure, shortened: as §1

[1] = Postemergence, Rate 62 g/ha, scale 0 to 10, 0 is no effect, 10 is complete control
[2] = Postemergence, Rate 125 g/ha, scale of 0 to 10 where 0 is no effect and 10 is complete control
[3] = Postemergence, Rate 500 g/ha, scale 0 (no effect) to 10 (complete control)
[4] = Preemergence, Rate 125 g/ha, scale of 0 to 10 where 0 is no effect and 10 is complete control
[5] = Preemergence, Rate 250 g/ha, scale 0 (no effect) to 10 (complete control)
[6] = Rate 62 g/ha, Preemergence, scale 0 to 10
[7] = Rate 250 g/ha, Postemergence, scale 0 to 10, 0 is no effect, 10 is complete control
[8] = Rate 500 g/ha, Preemergence, scale 0 to 10 (0 no effect, 10 complete control)
[9] = Preemergence, Rate 62 g/ha, scale of 0 to 10 where 0 is no effect and 10 is complete control
[10] = Preemergence, Rate 250 g/ha, scale 0 to 10 (0 no effect, 10 complete control)
[11] = Preemergence, Rate 500 g/ha, scale of 0 to 10 where 0 is no effect and 10 is complete control

## CC(C)N(C(=O)n1oc(=O)n(CCN(C)C(=O)c2ccccc2)c1=O)c1ccc(F)cc1F [Compound 762]
cocklebur; [1]
  Plant response rating, Cocklebur: 0
cocklebur; [2]
  Cocklebur plant response rating: 0
cocklebur; [3]
  Cocklebur plant response rating: 0
cocklebur; [4]
  Plant response rating, Cocklebur: 0
cocklebur; [5]
  Cocklebur plant response rating: 0
cocklebur; [6]
  Cocklebur plant response rating: 0
cocklebur; [7]
  Cocklebur plant response rating: 0
cocklebur; [8]
  Cocklebur plant response rating: 0
bedstraw; [1]
  Plant response rating, Bedstraw: 0
bedstraw; [2]
  Bedstraw plant response rating: 0
bedstraw; [3]
  Bedstraw plant response rating: 0
bedstraw; [4]
  Plant response rating, Bedstraw: 0
bedstraw; [5]
  Bedstraw plant response rating: 0
bedstraw; [6]
  Bedstraw plant response rating: 0
bedstraw; [7]
  Bedstraw plant response rating: 0
bedstraw; [8]
  Bedstraw plant response rating: 0
wheat; [1]
  Plant response rating, Wheat: 0
wheat; [3]
  Wheat plant response rating: 0
wheat; [4]
  Plant response rating, Wheat: 0
wheat; [5]
  Wheat plant response rating: 0
wheat; [6]
  Wheat plant response rating: 0
wheat; [7]
  Wheat plant response rating: 0
wheat; [8]
  Wheat plant response rating: 0
Surinam grass; [1]
  Plant response rating, B. signalgrass: 0
Surinam grass; [2]
  B. signalgrass plant response rating: 0
Surinam grass; [9]
  B. signalgrass plant response rating: 0
Surinam grass; [4]
  Plant response rating, B. signalgrass: 0
Surinam grass; [5]
  B. signalgrass plant response rating: 6
Surinam grass; [7]
  B. signalgrass plant response rating: 2
Surinam grass; Rate 500 g/ha, Postemergence, scale 0 to 10, 0 is no effect, 10 is complete control
  B. signalgrass plant response rating: 3
Surinam grass; [8]
  B. signalgrass plant response rating: 9
rape; [1]
  Plant response rating, Rape: 0
rape; [3]
  Rape plant response rating: 0
rape; [4]
  Plant response rating, Rape: 0
rape; [5]
  Rape plant response rating: 0
rape; [6]
  Rape plant response rating: 0
rape; [7]
  Rape plant response rating: 0
rape; [8]
  Rape plant response rating: 0
Purple nutsedge; [1]
  Plant response rating, Nutsedge: 0
Purple nutsedge; [2]
  Nutsedge plant response rating: 0
Purple nutsedge; [3]
  Nutsedge plant response rating: 3
Purple nutsedge; [4]
  Plant response rating, Nutsedge: 0
Purple nutsedge; [5]
  Nutsedge plant response rating: 0
Purple nutsedge; [6]
  Nutsedge plant response rating: 0
Purple nutsedge; [7]
  Nutsedge plant response rating: 0
Purple nutsedge; [8]
  Nutsedge plant response rating: 6
Sugar beet; [1]
  Plant response rating, Sugarbeets: 0
Sugar beet; [3]
  Sugarbeets plant response rating: 6
Sugar beet; [4]
  Plant response rating, Sugarbeets: 0
Sugar beet; [5]
  Sugarbeets plant response rating: 4
Sugar beet; [6]
  Sugarbeets plant response rating: 0
Sugar beet; [7]
  Sugarbeets plant response rating: 6
Sugar beet; [8]
  Sugarbeets plant response rating: 4
pigweed; [1]
  Plant response rating, Redroot pigweed: 0
pigweed; [2]
  Redroot pigweed plant response rating: 0
pigweed; [3]
  Redroot pigweed plant response rating: 6
pigweed; [4]
  Plant response rating, Redroot pigweed: 2
pigweed; [5]
  Redroot pigweed plant response rating: 3
pigweed; [6]
  Redroot pigweed plant response rating: 2
pigweed; [7]
  Redroot pigweed plant response rating: 6
pigweed; [8]
  Redroot pigweed plant response rating: 3
Wild oat; [1]
  Plant response rating, Wild oats: 0
Wild oat; [3]
  Wild oats plant response rating: 2
Wild oat; [4]
  Plant response rating, Wild oats: 0
Wild oat; [5]
  Wild oats plant response rating: 0
Wild oat; [6]
  Wild oats plant response rating: 0
Wild oat; [7]
  Wild oats plant response rating: 0
Wild oat; [8]
  Wild oats plant response rating: 0
morningglory; [1]
  Plant response rating, Morningglory: 0
morningglory; [2]
  Morningglory plant response rating: 2
morningglory; [3]
  Morningglory plant response rating: 2
morningglory; [4]
  Plant response rating, Morningglory: 0
morningglory; [5]
  Morningglory plant response rating: 0
morningglory; [6]
  Morningglory plant response rating: 0
morningglory; [7]
  Morningglory plant response rating: 2
morningglory; [8]
  Morningglory plant response rating: 0
Giant foxtail; [2]
  Giant foxtail plant response rating: 0
Giant foxtail; [4]
  Plant response rating, Giant foxtail: 10
Giant foxtail; [5]
  Giant foxtail plant response rating: 9
Giant foxtail; [6]
  Giant foxtail plant response rating: 5
Giant foxtail; [7]
  Giant foxtail plant response rating: 8
Giant foxtail; [8]
  Giant foxtail plant response rating: 9
velvetleaf; [1]
  Plant response rating, Velvetleaf: 0
velvetleaf; [3]
  Velvetleaf plant response rating: 3
velvetleaf; [4]
  Plant response rating, Velvetleaf: 0
velvetleaf; [5]
  Velvetleaf plant response rating: 0
velvetleaf; [6]
  Velvetleaf plant response rating: 0
velvetleaf; [7]
  Velvetleaf plant response rating: 3
velvetleaf; [8]
  Velvetleaf plant response rating: 5
corn; [1]
  Plant response rating, Corn: 0
corn; [2]
  Corn plant response rating: 0
corn; [3]
  Corn plant response rating: 2
corn; [4]
  Plant response rating, Corn: 0
corn; [5]
  Corn plant response rating: 0
corn; [6]
  Corn plant response rating: 0
corn; [7]
  Corn plant response rating: 2
corn; [8]
  Corn plant response rating: 0
crabgrass; [1]
  Plant response rating, Crabgrass: 0
crabgrass; [2]
  Crabgrass plant response rating: 0
crabgrass; [3]
  Crabgrass plant response rating: 8
crabgrass; [4]
  Plant response rating, Crabgrass: 4
crabgrass; [5]
  Crabgrass plant response rating: 4
crabgrass; [7]
  Crabgrass plant response rating: 3
crabgrass; [8]
  Crabgrass plant response rating: 0
soybean; [1]
  Plant response rating, Soybean: 2
soybean; [3]
  Soybean plant response rating: 4
soybean; [4]
  Plant response rating, Soybean: 0
soybean; [5]
  Soybean plant response rating: 0
soybean; [6]
  Soybean plant response rating: 0
soybean; [7]
  Soybean plant response rating: 4
soybean; [8]
  Soybean plant response rating: 0
blackgrass; [1]
  Plant response rating, Blackgrass: 0
blackgrass; [2]
  Blackgrass plant response rating: 0
blackgrass; [3]
  Blackgrass plant response rating: 0
blackgrass; [4]
  Plant response rating, Blackgrass: 0
blackgrass; [5]
  Blackgrass plant response rating: 7
blackgrass; [6]
  Blackgrass plant response rating: 0
blackgrass; [7]
  Blackgrass plant response rating: 0
blackgrass; [8]
  Blackgrass plant response rating: 9

## CC(C)N(C(=O)n1oc(=O)n(C(C)C(=S)N(C)C)c1=O)c1ccccc1 (stereo not shown) [Compound 704]
cocklebur; [9]
  Cocklebur plant response rating: 0
cocklebur; [4]
  Plant response rating, Cocklebur: 0
cocklebur; [10]
  Plant response rating, Cocklebur: 0
cocklebur; [11]
  Plant response rating, Cocklebur: 0
bedstraw; [9]
  Bedstraw plant response rating: 0
bedstraw; [4]
  Plant response rating, Bedstraw: 0
bedstraw; [10]
  Plant response rating, Bedstraw: 0
wheat; [9]
  Wheat plant response rating: 0
wheat; [4]
  Plant response rating, Wheat: 0
Surinam grass; [9]
  B. signalgrass plant response rating: 2
Surinam grass; [4]
  Plant response rating, B. signalgrass: 5
Surinam grass; [10]
  Plant response rating, B. signalgrass: 8
Surinam grass; [11]
  Plant response rating, B. signalgrass: 9
rape; [9]
  Rape plant response rating: 0
rape; [4]
  Plant response rating, Rape: 0
Purple nutsedge; [9]
  Nutsedge plant response rating: 0
Purple nutsedge; [4]
  Plant response rating, Nutsedge: 0
Sugar beet; [9]
  Sugarbeets plant response rating: 0
Sugar beet; [4]
  Plant response rating, Sugarbeets: 3
pigweed; [9]
  Redroot pigweed plant response rating: 0
pigweed; [4]
  Plant response rating, Redroot pigweed: 5
Wild oat; [9]
  Wild oats plant response rating: 0
Wild oat; [4]
  Plant response rating, Wild oats: 0
morningglory; [9]
  Morningglory plant response rating: 0
morningglory; [4]
  Plant response rating, Morningglory: 0
Giant foxtail; [9]
  Giant foxtail plant response rating: 4
Giant foxtail; [4]
  Plant response rating, Giant foxtail: 7
velvetleaf; [9]
  Velvetleaf plant response rating: 0
velvetleaf; [4]
  Plant response rating, Velvetleaf: 0
corn; [9]
  Corn plant response rating: 0
corn; [4]
  Plant response rating, Corn: 0
corn; [10]
  Plant response rating, Corn: 0
crabgrass; [9]
  Crabgrass plant response rating: 5
crabgrass; [4]
  Plant response rating, Crabgrass: 8
crabgrass; [10]
  Plant response rating, Crabgrass: 8
soybean; [9]
  Soybean plant response rating: 0
soybean; [4]
  Plant response rating, Soybean: 0
blackgrass; [9]
  Blackgrass plant response rating: 2
blackgrass; [4]
  Plant response rating, Blackgrass: 6
blackgrass; [10]
  Plant response rating, Blackgrass: 10
blackgrass; [11]
  Plant response rating, Blackgrass: 10
